According to publication PMC10342118, “Microbial Metabolites of 3-n-butylphthalide as Monoamine Oxidase A Inhibitors” (International Journal of Molecular Sciences, 2023):
Several values for one entry are separate records, joined by “and”; a condition that tells them apart may be missing. Equal entries are not always repeated. Where two headings read alike, the source gives them in different places. Marks after values point to notes of the source that are not given here.

How the values were obtained:
[1] = biological target: T1, MAO-A (Homo sapiens, UniProt P21397); design: method as in PMID 23374869; conditions: MAO-A inhibition; cited from earlier work
T1 sequence (P21397 1-527): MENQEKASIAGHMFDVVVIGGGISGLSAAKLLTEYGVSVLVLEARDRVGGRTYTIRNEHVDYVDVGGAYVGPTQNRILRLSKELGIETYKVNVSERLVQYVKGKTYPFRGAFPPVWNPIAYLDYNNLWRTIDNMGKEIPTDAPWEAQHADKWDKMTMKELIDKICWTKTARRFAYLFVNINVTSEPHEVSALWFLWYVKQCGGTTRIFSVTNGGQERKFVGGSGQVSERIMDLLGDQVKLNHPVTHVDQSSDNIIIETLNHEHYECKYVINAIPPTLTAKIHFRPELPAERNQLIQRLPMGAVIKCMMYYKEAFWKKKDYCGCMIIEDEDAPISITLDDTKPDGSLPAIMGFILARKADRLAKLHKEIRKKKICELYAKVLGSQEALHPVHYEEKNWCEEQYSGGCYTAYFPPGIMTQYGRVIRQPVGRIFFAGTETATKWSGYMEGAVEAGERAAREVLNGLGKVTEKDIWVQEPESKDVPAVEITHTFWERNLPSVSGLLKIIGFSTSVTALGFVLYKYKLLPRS

[2] = biological target: T1, MAO-A; assay: Inhibition of 5-HT deamination by the MAO-A enzyme (ITC); type: biochemical; conditions: for IC50: rate of 5-HT deamination
Method: (§1) Protein-ligand interaction analysis was performed using isothermal titration calorimetry (ITC). During the analysis, the heat of uptake or release, due to the interaction of MAO-A with the tested compounds, was recorded. In this way, raw data were obtained in the form of exothermic heat versus time graphs. Additionally, the ligand was injected into 1% DMSO with methanol to subtract the energetic effects of the dilution of the ligand solution. The highest negative change in enthalpy was characterized by the interaction of the enzyme with compounds 3 (−19.19 kJ/mol) and 4 (−13.37 kJ/mol), and the lowest value of ΔH was recorded during interactions with compound 1 (−4.51 kJ/mol). […] Affinity (ΔG) values were more evenly distributed between compound 1, compounds 1 with 4, 2 with 4, and 2 with 3. […] The ability of the ligands to inhibit […] activity was described on the basis of the IC50 parameter.
Compounds 4 and 4 combined with 2 were at a similar level of about 5 μmol/μmol of the enzyme. Substrate 1, tested with lactones 2 and 3, turned out to be the least beneficial compounds, with a high concentration inhibiting the activity of the enzyme by 50%, and had the least favorable affinity. This effect can be explained by the binding of several compounds in the mixture to different MAO-A residues at the active site and in other regions. Molecular docking can be used in future research to confirm this assumption.
(§2) A MicroCal PEAQ-ITC200 calorimeter (Malvern, Worcestershire, UK) was used to study the interactions of MAO-A with the compounds. The enzyme and compounds were prepared in 1% DMSO with methanol. The measurements were performed at 36.6 °C. The stirring speed was set to 307 rpm, and a total of 19 injections were performed within 50 min, with the reference power set to 10.00 μcal/s. All sample solutions were thoroughly degassed before use. The calorimetric cell was filled with a 20 μM (350 µL) MAO-A sample, and the syringe (2 µL of injection volume) was loaded with a 1 mM/L solution or/and 5-HT (1 mM/L). The ITC data were processed using MicroCal PEAQ-ITC analysis software with calorimetric routines. The following parameters were determined: the standard interaction Gibbs energy (ΔG), standard interaction enthalpy (ΔH), entropy (ΔS), equilibrium constant (KD), and stoichiometry of reaction (N).

[3] = tested on: primary human hepatocytes; conditions: concentration 0–500 µM; cited from earlier work
[4] = biological target: T1, MAO-A; assay: Isothermal titration calorimetry (ITC) of the interaction of MAO-A with the compounds; type: binding
Method: as §1, §2

[5] = tested on: primary rat hepatocytes and primary human hepatocytes; conditions: repetitive administration; cited from earlier work
[6] = tested on: primary rat hepatocytes; conditions: concentration 0–500 µM; cited from earlier work
[7] = design: method as in PMID 34060121; conditions: rat plasma and liver microsomes; cited from earlier work
[8] = design: method as in PMID 23169608; conditions: in vivo; cited from earlier work
[9] = KM 5-HT 0.35 mmol, mean ± SD, n = 3, read-out: Ki
[10] = ITC, 36.6 °C, mean ± SD, n = 3, read-out: KD

Question: With O=C1OCc2ccc(OCCCc3ccccc3)cc21 [6-phenyl-propoxyphthalide] as the compound, how does the Ki [1] read?
Answer: 0.062 µM

Question: For CCCCC1OC(=O)c2ccccc21 (centres unmarked) [Compound 1, 3-n-butylphthalide], which Ki [2] is on record?
Answer: 241 ± 3.55 µM

Question: And the toxicity [3]?
Answer: not toxic

Question: What about the Kd [4] of the same compound?
Answer: 24.3 ± 1.39 µM

Question: And the “KA ∗ 10^3” value ([4]; ITC, 36.6 °C, mean ± SD, n = 3)?
Answer: 41.15 ± 0.36 ^d 10^3 L/mol

Question: And the “∆G (affinity)” value ([4]; ITC, 36.6 °C, mean ± SD, n = 3)?
Answer: -6.532 ± 0.272 kcal/mol

Question: What about the “∆H” value ([4]; ITC, 36.6 °C, mean ± SD, n = 3) of the same compound?
Answer: −4.51 kJ/mol and −4.51 ± 0.02 ^e kJ/mol

Question: What about the “∆S” value ([4]; ITC, 36.6 °C, mean ± SD, n = 3) of the same compound?
Answer: 73.85 ± 1.05 ^d J/mol ∗ K

Question: What about the cell viability [5] of the same compound?
Answer: reduction in cell viability

Question: And the toxicity [6]?
Answer: not toxic

Question: With CC(O)CCC1OC(=O)c2ccccc21 (centres unmarked) [Compound 2, 3-n-butyl-10-hydroxyphthalide] as the compound, how does the Ki [2, 9] read?
Answer: 994 ± 3.18 µM

Question: What about the “KA ∗ 10^3” value ([4]; ITC, 36.6 °C, mean ± SD, n = 3) of the same compound?
Answer: 33.44 ± 0.15 ^a 10^3 L/mol

Question: What about the “∆G (affinity)” value ([4]; ITC, 36.6 °C, mean ± SD, n = 3) of the same compound?
Answer: −26.79 ± 1.55 ^j kJ/mol

Question: And the “∆H” value ([4]; ITC, 36.6 °C, mean ± SD, n = 3)?
Answer: −7.77 ± 0.01 ^e kJ/mol

Question: What about the “∆S” value ([4]; ITC, 36.6 °C, mean ± SD, n = 3) of the same compound?
Answer: 61.55 ± 1.84 ^d J/mol ∗ K

Question: And the Kd [4, 10]?
Answer: 29.9 ± 1.09 µM

Question: And the “rank among metabolites of 3-n-butylphthalide” value [7]?
Answer: main metabolite

Question: And the “rank among circulating human metabolites of 3-n-butylphthalide” value [8]?
Answer: dominant circulating human metabolite

Question: Which results are given for O=C1OC(CCCCO)c2ccccc21 (centres unmarked) [Compound 3, 3-n-butyl-11-hydroxyphthalide]?
Answer: Ki [2, 9]: < 0.001 µM; IC50 [2]: 1.29 μmol/μmol of enzyme; KA ∗ 10^3 ([4]; ITC, 36.6 °C, mean ± SD, n = 3): 4.18 ± 0.35 ^e 10^3 L/mol; ∆G (affinity) ([4]; ITC, 36.6 °C, mean ± SD, n = 3): −23.49 kJ/mol and −23.49 ± 1.42 ^i kJ/mol; ∆H ([4]; ITC, 36.6 °C, mean ± SD, n = 3): −19.19 kJ/mol and −19.19 ± 0.01 ^f kJ/mol; ∆S ([4]; ITC, 36.6 °C, mean ± SD, n = 3): 13.92 ± 0.92 ^a J/mol ∗ K; Kd [4, 10]: 239 ± 4.25 µM

Question: Which Ki [2, 9] does the source give for O=C(O)CCCC1OC(=O)c2ccccc21 (centres unmarked) [Compound 4, 3-n-butylphthalide-11-oic acid] here?
Answer: 128 ± 1.25 µM

Question: And the IC50 [2]?
Answer: about 5 μmol/μmol of enzyme

Question: And the “KA ∗ 10^3” value ([4]; ITC, 36.6 °C, mean ± SD, n = 3)?
Answer: 14.83 ± 0.25 ^e 10^3 L/mol

Question: What about the “∆G (affinity)” value ([4]; ITC, 36.6 °C, mean ± SD, n = 3) of the same compound?
Answer: −28.42 kJ/mol and −28.42 ± 1.43 ^j kJ/mol

Question: What about the “∆H” value ([4]; ITC, 36.6 °C, mean ± SD, n = 3) of the same compound?
Answer: −13.37 kJ/mol and −13.37 ± 0.02 ^f kJ/mol

Question: What about the “∆S” value ([4]; ITC, 36.6 °C, mean ± SD, n = 3) of the same compound?
Answer: 48.71 ± 1.05 ^a J/mol ∗ K

Question: And the Kd [4, 10]?
Answer: 67.4 ± 3.15 µM
